Our source for the Ki, inhibition and IC50 values is ChEMBL document CHEMBL1667847, “Quinazolines with intra-molecular hydrogen bonding scaffold (iMHBS) as PI3K/mTOR dual inhibitors” (Bioorg Med Chem Lett, 2011).

Experiment [1] has as its target T1, Serine/threonine-protein kinase mTOR (Homo sapiens, UniProt P42345). The experiment is described as follows: Inhibition of mTOR.
For experiment [2], the target named is T1, Serine/threonine-protein kinase mTOR. The experiment is described as follows: Inhibition of mTOR at 1 uM.
Experiment [3] concerns the target T2, Phosphatidylinositol 4,5-bisphosphate 3-kinase catalytic subunit alpha isoform (Homo sapiens, UniProt P42336). The experiment in a line: Inhibition of PI3Kalpha by fluorescene polarization assay.
Experiment [4] addresses T2, Phosphatidylinositol 4,5-bisphosphate 3-kinase catalytic subunit alpha isoform. The experiment in a line: Inhibition of PI3Kalpha-phosphorylation at S473 residue in human BT20 cells. In kind it is cell-based, BT-20.

A value given as a limit tells only on which side of the number the result lay.

T2 sequence (P42336 whole entry, canonical isoform): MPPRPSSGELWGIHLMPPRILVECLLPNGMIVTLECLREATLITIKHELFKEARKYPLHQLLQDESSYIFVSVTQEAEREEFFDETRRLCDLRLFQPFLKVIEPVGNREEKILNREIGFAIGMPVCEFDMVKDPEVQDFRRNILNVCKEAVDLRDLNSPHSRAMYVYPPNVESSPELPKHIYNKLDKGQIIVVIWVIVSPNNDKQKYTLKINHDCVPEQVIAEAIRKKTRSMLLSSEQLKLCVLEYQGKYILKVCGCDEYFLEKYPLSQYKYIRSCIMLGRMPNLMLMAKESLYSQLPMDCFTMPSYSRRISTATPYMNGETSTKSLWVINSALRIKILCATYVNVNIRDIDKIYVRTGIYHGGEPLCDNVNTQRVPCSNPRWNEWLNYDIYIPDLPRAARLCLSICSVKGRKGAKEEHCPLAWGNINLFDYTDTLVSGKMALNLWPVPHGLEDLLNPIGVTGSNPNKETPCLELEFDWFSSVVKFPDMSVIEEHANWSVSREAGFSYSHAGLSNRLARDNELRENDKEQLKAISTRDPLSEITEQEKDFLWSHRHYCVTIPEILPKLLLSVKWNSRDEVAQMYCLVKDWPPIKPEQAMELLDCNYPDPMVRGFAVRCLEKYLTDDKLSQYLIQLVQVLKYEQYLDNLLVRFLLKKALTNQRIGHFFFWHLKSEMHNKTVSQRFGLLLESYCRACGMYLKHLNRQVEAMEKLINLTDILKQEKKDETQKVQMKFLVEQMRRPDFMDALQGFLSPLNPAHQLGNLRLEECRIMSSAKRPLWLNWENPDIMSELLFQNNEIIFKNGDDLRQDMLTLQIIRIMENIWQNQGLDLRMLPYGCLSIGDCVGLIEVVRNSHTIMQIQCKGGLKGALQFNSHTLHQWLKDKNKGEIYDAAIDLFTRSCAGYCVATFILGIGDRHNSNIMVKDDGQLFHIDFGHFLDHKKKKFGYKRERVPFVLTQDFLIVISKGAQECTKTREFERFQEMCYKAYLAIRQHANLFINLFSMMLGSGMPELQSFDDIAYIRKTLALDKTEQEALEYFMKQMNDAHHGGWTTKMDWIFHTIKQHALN

As for `Cc1nc(N)c2cccc(C(=O)Nc3ccc(N(C)C)nc3)c2n1`, the Ki worked out at 1000 nM in experiment [1] and 54 nM in experiment [3]. Further, in experiment [2], the inhibition is 57%.
The matching figures for `COc1ccc(NC(=O)c2c(C)ccc3c(N)nc(C)nc23)cn1`: 1000 nM, above 100 nM and 15%.
Regarding `Cc1cc(C(=O)Nc2ccn[nH]2)c2nc(C)nc(N)c2c1`, the inhibition constant (Ki) in experiment [1] came to 3 nM; in experiment [3] it was 7 nM. Also, the IC50 in experiment [4] came to 35 nM.
The like results for `Cc1cc(C(=O)Nc2cn[nH]c2)c2nc(C)nc(N)c2c1` were, in that order, 84 nM, 5 nM and 24 nM.
With `Cc1nc(N)c2ccc(C)c(C(=O)Nc3ccc(N(C)C)nc3)c2n1`, the Ki in experiment [3] was above 100 nM.
`Cc1nc(N)c2cc(CN3CCOCC3)cc(C(=O)Nc3ccn[nH]3)c2n1`: the Ki was 13 nM in experiment [1] and 15 nM in experiment [3].
`Cc1nc(N)c2ccc(C)c(C(=O)Nc3cn[nH]c3)c2n1`: the Ki in experiment [3] is above 100 nM.
Turning to `Cc1ccc(NC(=O)c2cccc3c(N)nc(C)nc23)cn1`, the results for the Ki in experiment [1] and in experiment [3] were 31 nM and 0.5 nM, respectively. 112 nM corresponded to half-maximal inhibition in experiment [4] (IC50).
For the compound `Cc1cc(C(=O)Nc2ccc(N(C)C)nc2)c2nc(C)nc(N)c2c1`, the Ki in experiment [1] is 162 nM; in experiment [3], 12 nM.
Regarding `Cc1nc(N)c2ccc(C)c(C(=O)Nc3cnc4[nH]ccc4c3)c2n1`, the results for the Ki in experiment [1] and in experiment [3] were 216 nM and 631 nM, respectively.
The matching figures for `Cc1nc(N)c2cccc(C(=O)Nc3cn[nH]c3)c2n1`: 21 nM and 6 nM.
The like results for `Cc1nc(N)c2cc(CN(C)C)cc(C(=O)Nc3ccn[nH]3)c2n1` were, in that order, 1330 nM and 188 nM.
With `Cc1cc(C(=O)Nc2cnc3[nH]ccc3c2)c2nc(C)nc(N)c2c1`, the Ki in experiment [1] turned out to be 17 nM; in experiment [3], 0.3 nM. In experiment [4], this compound came in with an IC50 of 43 nM.
In the case of `Cc1nc(N)c2ccc(C)c(C(=O)Nc3ccn[nH]3)c2n1`, the figures for the Ki in experiment [1] and in experiment [3] were 984 nM and 4550 nM, respectively.
As for `Cc1cc(C(=O)Nc2ccc(C)nc2)c2nc(C)nc(N)c2c1`, the Ki in experiment [1] was 66 nM; in experiment [3], 0.5 nM. In experiment [4], this compound showed an IC50 of 88 nM.
Consider `Cc1ccc(NC(=O)c2c(C)ccc3c(N)nc(C)nc23)cn1`, for which the Ki in experiment [1] worked out at 3250 nM; in experiment [3] it was 4550 nM.
`Cc1nc(N)c2cccc(C(=O)Nc3cnc4[nH]ccc4c3)c2n1`: the Ki is 5 nM in experiment [1] and 1 nM in experiment [3].
The matching figures for `COc1ccc(NC(=O)c2cc(C)cc3c(N)nc(C)nc23)cn1`: 265 nM and 0.5 nM.

For orientation: Ki means the equilibrium dissociation constant of an inhibitor or competing ligand from its target. A low value points to a stronger hold on the target. One may read the inhibition as the change of the read-out against control, counted positive when it falls. Usually IC50 stands for the concentration needed to halve the response being measured. A low value points to higher potency.
